Earlier results in patent publication US9486545B2, “Method of screening for colon cancer using biomarkers” (H. Lee Moffitt Cancer Center and Research Institute, Inc., priority 2011, dated 2016).

Tested on: TLR4

IC50: 3.2 nM
SMILES: CCOC(=O)C1=CCCC[C@H]1S(=O)(=O)Nc1ccc(F)cc1Cl [TAK 242, ethyl (6R)-6-[N-(2-Chloro-4-fluorophenyl)sulfamoyl]cyclohex-1-ene-1-carboxylate]
